Measured values from patent US8076369B2, “N-alkyl-hydroxamic acid-isoindolyl compounds and their pharmaceutical uses” (Celgene Corporation, priority 2003, dated 2011).

Question: For CCOc1cc([C@@H](CCO)N2Cc3cccc(NC(=O)C4CC4)c3C2=O)ccc1OC [Example 1, (1R)-Cyclopropanecarboxylic acid {2-[1-(3-ethoxy-4-methoxy-phenyl)-3-hydroxy-propyl]-3-oxo-2,3-dihydro-1H-Isoindol-4-yl}-amide], which melting point is on record?
Answer: 103 to 105 °C

Question: For CCOc1cc(C(CCN(OC(=O)OC(C)(C)C)C(=O)OC(C)(C)C)N2Cc3cccc(NC(=O)C4CC4)c3C2=O)ccc1OC [Example 4, (3R)-(tert-Butoxy)-N-{3-[7-(cyclopropylcarbonylamino)-1-oxoisoindolin-2-yl]-3-(3-ethoxy-4-methoxyphenyl)propyl}carbonylamino(tert-butoxy)formate], which melting point is on record?
Answer: 153 to 155 °C

Question: With CCOc1cc(C(CCN(OC(=O)OC(C)(C)C)C(=O)OC(C)(C)C)N2Cc3cccc(N)c3C2=O)ccc1OC (stereo not drawn) [Example 5, N-[3-(7-Amino-1-oxoisoindolin-2-yl)-3-(3-ethoxy-4-methoxyphenyl)propyl](tert-butoxy)carbonylamino (tert-butoxy)formate] as the molecule, how does the melting point read?
Answer: 85 to 87 °C

Question: For CCOc1cc([C@@H](CCNO)N2Cc3cccc(NC(=O)C4CC4)c3C2=O)ccc1OC [Example 6, (3R)-Cyclopropanecarboxylic acid {2-[1-(3-ethoxy-4-methoxy-phenyl)-3-hydroxyamino-propyl]-3-oxo-2,3-dihydro-1H-Isoindol-4-yl}-amide], which melting point is on record?
Answer: 136 to 138 °C

Question: For CCOc1cc([C@@H](CCN(O)C=O)N2Cc3cccc(NC(=O)C4CC4)c3C2=O)ccc1OC [Example 7, (1R)-Cyclopropanecarboxylic acid {2-[1-(3-ethoxy-4-methoxy-phenyl)-3-(N-formyl-N-hydroxy-amino)-propyl]-3-oxo-2,3-dihydro-1H-Isoindol-4-yl}-amide], which melting point is on record?
Answer: 102 to 104 °C

Question: With CCOc1cc([C@@H](CCN(O)C=O)N2Cc3cccc(NC(C)=O)c3C2=O)ccc1OC [Example 8, (1R)—N-{2-[1-(3-Ethoxy-4-methoxy-phenyl)-3-(N-formyl-N-hydroxy-amino)-propyl]-3-oxo-2,3-dihydro-1H-Isoindol-4-yl}-acetamide] as the molecule, how does the melting point read?
Answer: 79 to 81 °C

Question: Which melting point does the source give for CCOc1cc([C@@H](CCN(O)C=O)N2Cc3cccc(NC(=O)C(C)C)c3C2=O)ccc1OC [Example 9, (1R)—N-{2-[1-(3-Ethoxy-4-methoxy-phenyl)-3-(N-formyl-N-hydroxy-amino)-propyl]-3-oxo-2,3-dihydro-1H-Isoindol-4-yl}-Isobutyramide] here?
Answer: 81 to 83 °C

Question: For CCOc1cc([C@@H](CCN(O)C=O)N2C(=O)c3cccc(NC(C)=O)c3C2=O)ccc1OC [Example 10, (1R)—N-{2-[1-(3-Ethoxy-4-methoxy-phenyl)-3-(N-formyl-N-hydroxy-amino)-propyl]-1,3-dioxo-2,3-dihydro-1H-Isoindol-4-yl}-acetamide], which melting point is on record?
Answer: 96 to 98 °C

Question: For CCOc1cc([C@@H](CCN(C=O)OC(C)=O)N2Cc3cccc(NC(=O)C(C)C)c3C2=O)ccc1OC [Example 11, (1R)—N-{2-[3-(N-Acetoxy-N-formyl-amino)-1-(3-ethoxy-4-methoxy-phenyl)-propyl]-3-oxo-2,3-dihydro-1H-Isoindol-4-yl}-Isobutyramide], which melting point is on record?
Answer: 72 to 74 °C

Question: For CCOc1cc([C@@H](CCN(O)C(N)=O)N2Cc3cccc(NC(=O)C(C)C)c3C2=O)ccc1OC [Example 12, (1R)—N-{2-[3-(N-Aminocarbonyl-N-hydroxy-amino)-1-(3-ethoxy-4-methoxy-phenyl)-propyl]-3-oxo-2,3-dihydro-1H-Isoindol-4-yl}-Isobutyramide], which melting point is on record?
Answer: 137 to 139 °C

Question: For CCOc1cc(C(CCN(OC(C)=O)C(C)=O)N2Cc3cccc(NC(=O)C4CC4)c3C2=O)ccc1OC (stereo not drawn) [Example 14], which melting point is on record?
Answer: 123 to 125 °C

Question: Which melting point does the source give for CCOc1cc([C@@H](CC(C)N(O)C=O)N2Cc3cccc(NC(=O)C4CC4)c3C2=O)ccc1OC (stereo partly drawn) [Example 15, (1R)-Cyclopropanecarboxylic acid {2-[1-(3-ethoxy-4-methoxy-phenyl)-3-(formyl-hydroxy-amino)-butyl]-3-oxo-2,3-dihydro-1H-Isoindol-4-yl}-amide] here?
Answer: 142 to 144 °C
